The record followed here is PMC8282492 (Journal of Ginseng Research, 2020).

One assay concerns the target T1, human 14-3-3 ζ (Homo sapiens, UniProt P63104).
T1 sequence (P63104 1-245): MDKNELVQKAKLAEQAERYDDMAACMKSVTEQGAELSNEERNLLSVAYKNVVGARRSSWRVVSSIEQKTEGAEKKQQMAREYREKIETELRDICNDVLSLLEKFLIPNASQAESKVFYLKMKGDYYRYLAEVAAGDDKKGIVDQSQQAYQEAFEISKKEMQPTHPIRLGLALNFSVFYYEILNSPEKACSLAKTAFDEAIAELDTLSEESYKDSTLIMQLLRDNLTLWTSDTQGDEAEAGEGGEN
The assay is described as follows: BLI direct binding response of ginsenosides to immobilised 14-3-3 ζ. The settings on record: compound concentration 271μM; Fig. 3A and B.

Assay [1] addresses T2, 14-3-3 ζ protein (human), P63104.
T2 chain: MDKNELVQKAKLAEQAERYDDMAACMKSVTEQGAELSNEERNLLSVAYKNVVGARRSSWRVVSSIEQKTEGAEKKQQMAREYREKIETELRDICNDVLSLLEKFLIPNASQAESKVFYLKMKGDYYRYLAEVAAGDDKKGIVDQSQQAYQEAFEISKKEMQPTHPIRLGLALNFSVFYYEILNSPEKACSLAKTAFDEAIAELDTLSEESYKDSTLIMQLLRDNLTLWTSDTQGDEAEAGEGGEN
In words: crystal structure. Conditions: remark: other sources report otherwise.

Regarding `CC(C)=CCC[C@](C)(O[C@@H]1O[C@H](CO)[C@@H](O)[C@H](O)[C@H]1O)[C@H]1CC[C@]2(C)[C@@H]1[C@H](O)C[C@@H]1[C@@]3(C)CC[C@H](O)C(C)(C)[C@@H]3CC[C@]12C` [CK, ginsenoside compound K], the “direct binding response to 14-3-3 ζ (BLI)” value (“direct binding response” for short) at human 14-3-3 ζ is “significant affinity”.

For the molecule `CC(C)=CCC[C@](C)(O[C@@H]1O[C@H](CO)[C@@H](O)[C@H](O)[C@H]1O)[C@H]1CC[C@]2(C)[C@@H]1[C@H](O)C[C@@H]1[C@@]3(C)CC[C@H](O)C(C)(C)[C@@H]3[C@@H](O)C[C@]12C` [F1], the “direct binding response” value at human 14-3-3 ζ was “barely interacted”.

As to `CC(C)=CCC[C@](C)(O)[C@H]1CC[C@]2(C)[C@@H]1[C@H](O)C[C@@H]1[C@@]3(C)CC[C@H](O)C(C)(C)[C@@H]3[C@@H](O)C[C@]12C` [PPT, 20(S)-protopanaxatriol], at human 14-3-3 ζ, the “direct binding response” value was “significant affinity”.

As for `CC(C)=CCC[C@](C)(O[C@@H]1O[C@H](CO[C@@H]2O[C@H](CO)[C@@H](O)[C@H](O)[C@H]2O)[C@@H](O)[C@H](O)[C@H]1O)[C@H]1CC[C@]2(C)[C@@H]1[C@H](O)C[C@@H]1[C@@]3(C)CC[C@H](O[C@@H]4O[C@H](CO)[C@@H](O)[C@H](O)[C@H]4O[C@@H]4O[C@H](CO)[C@@H](O)[C@H](O)[C@H]4O)C(C)(C)[C@@H]3CC[C@]12C` [Rb1], the “direct binding response” value at human 14-3-3 ζ was “barely interacted”.

As to `CC(C)=CCC[C@](C)(O[C@@H]1O[C@H](CO)[C@@H](O)[C@H](O)[C@H]1O)[C@H]1CC[C@]2(C)[C@@H]1[C@H](O)C[C@@H]1[C@@]3(C)CC[C@H](O)C(C)(C)[C@@H]3[C@@H](O[C@@H]3O[C@H](CO)[C@@H](O)[C@H](O)[C@H]3O)C[C@]12C` [Rg1], at human 14-3-3 ζ, the “direct binding response” value is reported as “significant affinity”.

Consider `CC(C)=CCC[C@](C)(O)[C@H]1CC[C@]2(C)[C@@H]1[C@H](O)C[C@@H]1[C@@]3(C)CC[C@H](O)C(C)(C)[C@@H]3[C@@H](O[C@@H]3O[C@H](CO)[C@@H](O)[C@H](O)[C@H]3O)C[C@]12C` [Rh1], for which the “direct binding response” value on human 14-3-3 ζ is recorded as “barely interacted”.

For `CC(C)=CCC[C@](C)(O)[C@H]1CC[C@]2(C)[C@@H]1[C@H](O)C[C@@H]1[C@@]3(C)CC[C@H](O[C@@H]4O[C@H](CO)[C@@H](O)[C@H](O)[C@H]4O)C(C)(C)[C@@H]3CC[C@]12C` [Rh2], at human 14-3-3 ζ, the “direct binding response” value is given as “significant affinity”.

B1: 14-3-3 ζ protein, P63104 1-245 (natural protein)
chain: MDKNELVQKAKLAEQAERYDDMAACMKSVTEQGAELSNEERNLLSVAYKNVVGARRSSWRVVSSIEQKTEGAEKKQQMAREYREKIETELRDICNDVLSLLEKFLIPNASQAESKVFYLKMKGDYYRYLAEVAAGDDKKGIVDQSQQAYQEAFEISKKEMQPTHPIRLGLALNFSVFYYEILNSPEKACSLAKTAFDEAIAELDTLSEESYKDSTLIMQLLRDNLTLWTSDTQGDEAEAGEGGEN
One may read the stoichiometry N as the number of molecules, sites or subunits per partner or assembly. For the molecule B1, in assay [1], the stoichiometry N is 2.
